Data on 49 compounds can be found in patent US20210347778A1, “HYDRAZINOPURINE COMPOUND AND TRIAZOLOPURINE COMPOUND FOR INHIBITING XANTHINE OXIDASE” (TERA STONE CO., LTD, priority 2018, published 2021).

Data set [1] addresses T1, cow milk-derived xanthine oxidase (XOD) (Bos taurus, UniProt P80457).
T1 construct: cow milk-derived xanthine oxidase (XOD) (10 mU/mL); from tissue; host or cells: cow milk
The data set is described as follows: Xanthine oxidase inhibition activity (inhibition of uric acid formation). The data set is classed as biochemical. Particulars: for IC50: xanthine 100 μM, XOD 10 mU/mL, 50 mM phosphate buffer pH 7.4, room temperature 15 minutes, O.D. 292 nm; for xanthine oxidase inhibition activity compared with allopurinol: in words, versus allopurinol. The protocol:
In a 50 mM phosphate buffer (pH 7.4), xanthine (100 μM), cow milk-derived xanthine oxidase (XOD) (10 mU/mL), and a test compound were mixed and the mixture was incubated at room temperature for 15 minutes.

For data set [2] the following is noted: patients administered allopurinol; cited from earlier work.
The conditions of data set [3]: rats; cited from earlier work.

T1 sequence (P80457 whole entry): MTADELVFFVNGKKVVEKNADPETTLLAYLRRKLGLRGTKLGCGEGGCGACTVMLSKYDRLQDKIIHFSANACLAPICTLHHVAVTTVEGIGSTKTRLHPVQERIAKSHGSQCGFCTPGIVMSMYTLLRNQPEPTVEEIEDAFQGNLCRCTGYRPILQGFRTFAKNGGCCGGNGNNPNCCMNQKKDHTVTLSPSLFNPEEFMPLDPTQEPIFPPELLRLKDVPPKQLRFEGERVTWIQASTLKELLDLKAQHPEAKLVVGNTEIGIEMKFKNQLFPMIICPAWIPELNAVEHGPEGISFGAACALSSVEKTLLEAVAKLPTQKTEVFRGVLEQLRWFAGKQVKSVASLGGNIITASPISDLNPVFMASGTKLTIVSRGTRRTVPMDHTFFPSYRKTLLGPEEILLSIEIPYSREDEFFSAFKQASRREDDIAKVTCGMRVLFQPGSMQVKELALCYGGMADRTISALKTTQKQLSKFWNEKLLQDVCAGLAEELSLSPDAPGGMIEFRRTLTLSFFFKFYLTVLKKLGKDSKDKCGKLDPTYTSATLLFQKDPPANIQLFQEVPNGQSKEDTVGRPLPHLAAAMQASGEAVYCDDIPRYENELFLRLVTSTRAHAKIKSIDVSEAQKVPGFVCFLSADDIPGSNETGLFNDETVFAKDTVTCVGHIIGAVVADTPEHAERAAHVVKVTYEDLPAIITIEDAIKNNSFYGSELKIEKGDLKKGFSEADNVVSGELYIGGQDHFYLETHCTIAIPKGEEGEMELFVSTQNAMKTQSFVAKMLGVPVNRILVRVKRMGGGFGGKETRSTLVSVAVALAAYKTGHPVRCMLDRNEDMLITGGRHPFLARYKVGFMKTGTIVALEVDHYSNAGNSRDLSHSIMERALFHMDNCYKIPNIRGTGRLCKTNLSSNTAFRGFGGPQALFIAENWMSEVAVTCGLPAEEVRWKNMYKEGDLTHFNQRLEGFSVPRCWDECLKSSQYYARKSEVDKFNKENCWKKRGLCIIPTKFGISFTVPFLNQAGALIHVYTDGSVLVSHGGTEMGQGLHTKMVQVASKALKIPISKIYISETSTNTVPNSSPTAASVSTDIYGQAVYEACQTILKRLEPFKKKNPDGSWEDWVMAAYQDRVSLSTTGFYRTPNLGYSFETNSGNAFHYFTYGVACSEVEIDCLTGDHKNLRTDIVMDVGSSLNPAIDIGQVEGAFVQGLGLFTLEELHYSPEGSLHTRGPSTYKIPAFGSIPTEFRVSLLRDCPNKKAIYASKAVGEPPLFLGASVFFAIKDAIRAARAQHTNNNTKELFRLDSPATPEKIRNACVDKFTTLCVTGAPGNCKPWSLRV

What is called melting point is the temperature, or range, at which the solid turns liquid. For orientation: IC50 means the point on the concentration scale where inhibition reaches its midpoint. Lower therefore signals inhibition by little substance. On to `CN(N=Cc1ccc(O)c(O)c1)c1nc(=O)[nH]c2nc[nH]c12` [I-21], for which the melting point was over 300 °C. Moreover, in data set [1], the IC50 was over 10000 nM. On the same counts, the results for `Cc1nc2[nH]c(=O)n3nc(-c4ccc([N+](=O)[O-])cc4)nc3c2[nH]1` [II-24] are over 330 °C and over 10000 nM. Taken in the same sequence, the figures for `O=c1nc(NN=Cc2ccc(Cl)cc2)c2[nH]c(-c3ccccc3)nc2[nH]1` [I-35] were over 330 °C and over 10000 nM. Taken in the same sequence, the figures for `Cc1ccc(C=NNc2nc(=O)[nH]c3nc(-c4ccccc4)[nH]c23)cc1` [I-36] were 321 °C and over 10000 nM.

The compound `O=c1nc(NN=Cc2ccc(O)cc2)c2[nH]cnc2[nH]1` [I-7] had a 50% inhibitory concentration (IC50) in data set [1] of 45 nM.

In turn, `O=c1nc(NN=Cc2ccc(F)cc2)c2[nH]cnc2[nH]1` [I-1] gave an IC50 in data set [1] of 38 nM. Compound `O=c1[nH]c2nc[nH]c2c2nc(-c3ccc(O)c(O)c3)nn12` [II-10] registered a melting point of over 285 °C. In addition, in data set [1], the IC50 was 1480 nM. The compound `COc1cc(C=NNc2nc(=O)[nH]c3nc[nH]c23)cc(OC)c1OC` [I-11] registered an IC50 in data set [1] of 208 nM. On to `CN(N=Cc1ccc(O)cc1)c1nc(=O)[nH]c2nc[nH]c12` [I-18], for which the IC50 in data set [1] is 93 nM. As to `O=c1[nH]c2nc[nH]c2c2ncnn12` [II-1], the melting point is 262 °C. In data set [1], this compound registered a half-inhibitory concentration (IC50) of over 10000 nM.

The compound `Cn1cnc2c1c1nc(-c3ccc(Cl)cc3)nn1c(=O)n2C` [II-14] registered a melting point of over 330 °C. Moreover, the IC50 in data set [1] was over 10000 nM. On the same counts, the results for `O=c1[nH]c2nc(-c3ccccc3)[nH]c2c2nc(-c3ccc([N+](=O)[O-])cc3)nn12` [II-31] are over 330 °C and over 10000 nM. In turn, `O=c1[nH]c2nc[nH]c2c2nc(-c3ccccc3)nn12` [II-3] displayed a melting point of over 300 °C. The compound also displayed an IC50 in data set [1] of 2570 nM. On the same counts, the results for `O=c1[nH]c2nc[nH]c2c2nc(-c3ccc(Cl)cc3)nn12` [II-4] are 285 °C and 66 nM. Regarding `O=c1[nH]c2nc(-c3ccccc3)[nH]c2c2ncnn12` [II-25], the melting point is over 330 °C. Also, in data set [1], the “xanthine oxidase inhibition activity compared with allopurinol” value is “higher xanthine oxidase inhibition activity than allopurinol” and half-maximal inhibition (IC50) required 9910 nM. On to `Oc1ncnc2[nH]ncc12` [allopurinol], for which the “patients suffering from side effects (severe skin disorders, hypersensitivity vasculitis)” value in data set [2] is “three to five”. Consider `Cc1nc(-c2ccc(OCC(C)C)c(C#N)c2)sc1C(=O)O` [Febuxostat], for which the “excreted through non-renal excretion pathways” value in data set [3] is listed as “about 50%”. In the case of `O=c1nc(NN=Cc2ccccc2)c2[nH]c(-c3ccccc3)nc2[nH]1` [I-34], the melting point turned out to be 318 °C. Further, the 50% inhibitory concentration (IC50) in data set [1] was over 10000 nM.

On to `O=c1nc(NN=Cc2ccc([N+](=O)[O-])cc2)c2[nH]cnc2[nH]1` [I-4], for which the IC50 in data set [1] is 45 nM.

`COc1ccccc1C=NN(C)c1nc(=O)[nH]c2nc[nH]c12` [I-14] displayed an IC50 in data set [1] of 79 nM. On the same count and under the same terms, under `COc1ccc(C=NN(C)c2nc(=O)[nH]c3nc[nH]c23)cc1` [I-16] stands 76 nM; under `O=c1nc(NN=Cc2ccc3c(c2)OCO3)c2[nH]cnc2[nH]1` [I-6], 63 nM. As for `Cc1nc2[nH]c(=O)nc(NN=Cc3ccc([N+](=O)[O-])cc3)c2[nH]1` [I-33, 8-methyl-6-(4-nitrobenzylidenehydrazino)-7H-purin-2(3H)-one], the melting point is over 330 °C. `CN(N=Cc1ccc(O)c(O)c1O)c1nc(=O)[nH]c2nc[nH]c12` [I-22] yielded a melting point of over 300 °C. The same compound showed an IC50 in data set [1] of over 10000 nM.

Regarding `Cc1nc2c3[nH]cnc3[nH]c(=O)n2n1` [II-2], the melting point came out at 277 °C. The compound also came in with a half-maximal inhibitory concentration (IC50) in data set [1] of over 10000 nM.

On to `CCCCCCCC=NN(C)c1nc(=O)[nH]c2nc[nH]c12` [I-19, 6-(1-methyl-2-n-octylidenehydrazino)-7H-purin-2(3H)-one], for which the melting point was 248 °C. In addition, the 50% inhibitory concentration (IC50) in data set [1] was over 10000 nM. Turning to `O=c1nc(NN=Cc2ccccc2)c2[nH]cnc2[nH]1` [I-9], the melting point amounted to 300 °C. In data set [1], this compound gave a half-maximal inhibitory concentration (IC50) of 50 nM. The compound `O=c1nc(NN=Cc2ccc(O)c(O)c2)c2[nH]cnc2[nH]1` [I-12] registered a melting point of over 300 °C. For the same compound, half-maximal inhibition in data set [1] (IC50) required 349 nM.

`Cc1nnc2c3c(ncn3C)n(C)c(=O)n12` [III-2, 3,6,9-trimethyl-9H-1,2,4-triazolo[3,4-i]purin-5(6H)-one] came in with a melting point of 270 °C. `CCCCCCCc1nc2c3[nH]cnc3[nH]c(=O)n2n1` [II-6] gave a melting point of over 270 °C. In addition, the IC50 in data set [1] worked out at 9200 nM.

In turn, `O=c1nc(NN=Cc2ccc(Cl)cc2)c2[nH]cnc2[nH]1` [I-2] yielded an IC50 in data set [1] of 25 nM. Turning to `COc1ccc(C=NNc2nc(=O)[nH]c3nc(-c4ccccc4)[nH]c23)cc1` [I-37], the melting point worked out at 314 °C. In data set [1], the “xanthine oxidase inhibition activity compared with allopurinol” value is reported as “higher xanthine oxidase inhibition activity than allopurinol” and the IC50 amounted to 9210 nM. `Cn1cnc2c1c1nc(-c3ccc([N+](=O)[O-])cc3)nn1c(=O)n2C` [II-17] yielded a melting point of over 330 °C. Also, the IC50 in data set [1] was over 10000 nM. On the same counts, the results for `O=c1nc(NN=Cc2ccc(O)c(O)c2O)c2[nH]cnc2[nH]1` [I-13] are over 300 °C and 1480 nM. Consider `COc1cccc(C=NN(C)c2nc(=O)[nH]c3nc[nH]c23)c1` [I-15], for which, in data set [1], half-maximal inhibition (IC50) required 100 nM. `O=c1nc(NN=Cc2ccc([N+](=O)[O-])cc2)c2[nH]c(-c3ccccc3)nc2[nH]1` [I-38, 6-(4-nitrobenzylidenehydrazino)-8-phenyl-7H-purin-2(3H)-one] had a melting point of over 330 °C. In data set [1], the “xanthine oxidase inhibition activity compared with allopurinol” value is “higher xanthine oxidase inhibition activity than allopurinol” and half-maximal inhibition (IC50) required 4480 nM. With `COc1ccc(C=NNc2nc(=O)[nH]c3nc[nH]c23)cc1` [I-5], 57 nM corresponded to half-maximal inhibition in data set [1] (IC50). Turning to `COc1cc(-c2nc3c4[nH]cnc4[nH]c(=O)n3n2)cc(OC)c1OC` [II-9], the melting point is over 283 °C. The compound also showed an IC50 in data set [1] of 2010 nM. On the same counts, the results for `Cc1ccc(C=NNc2nc(=O)[nH]c3nc[nH]c23)cc1` [I-10] are over 300 °C and 20 nM.

`COc1ccc(-c2nc3c4[nH]cnc4[nH]c(=O)n3n2)cc1` [II-5]: the melting point was determined as 288 °C. Further, in data set [1], the midpoint of inhibition, the IC50, lay at 130 nM.

`Cc1ccc(-c2nc3c4[nH]cnc4[nH]c(=O)n3n2)cc1` [II-7] came in with a melting point of over 300 °C. The compound further registered an IC50 in data set [1] of 2400 nM. On the same counts, the results for `COc1cc(C=NN(C)c2nc(=O)[nH]c3nc[nH]c23)cc(OC)c1OC` [I-20] are over 300 °C and over 10000 nM. Taken in the same sequence, the figures for `O=c1[nH]c2nc[nH]c2c2nc(-c3ccc([N+](=O)[O-])cc3)nn12` [II-8] were over 300 °C and 4270 nM. Compound `Cn1cnc2c1c1nncn1c(=O)n2C` [III-1, 6,9-dimethyl-9H-1,2,4-triazolo[3,4-i]purin-5(6H)-one] returned a melting point of 264 °C. On the same count and under the same terms, under `O=c1nc(NN=Cc2ccc([N+](=O)[O-])cc2)c2[nH]c(-c3ccc(Cl)cc3)nc2[nH]1` [I-43, 8-(4-chlorophenyl)-6-(4-nitrobenzylidenehydrazino)-7H-purin-2(3H)-one] stands 229 °C.

The compound `CN(C)c1ccc(C=NNc2nc(=O)[nH]c3nc[nH]c23)cc1` [I-3] returned an IC50 in data set [1] of 75 nM.

As for `CN(N=Cc1ccc(F)cc1)c1nc(=O)[nH]c2nc[nH]c12` [I-17], in data set [1], half-maximal inhibition (IC50) required 116 nM. Take `O=c1[nH]c2nc(-c3ccc(Cl)cc3)[nH]c2c2ncnn12` [II-32]: the melting point is over 330 °C. In data set [1], the “xanthine oxidase inhibition activity compared with allopurinol” value was “higher xanthine oxidase inhibition activity than allopurinol” and the IC50 came out at 1090 nM. The compound `CCCCCCCC=NNc1nc(=O)[nH]c2nc[nH]c12` [I-8, 6-n-octylidenehydrazino-7H-purin-2(3H)-one] registered a melting point of 190 °C. In data set [1], it took 2020 nM to reach half-maximal inhibition (IC50).
